These results are taken from article PMC7810238, “Design, synthesis, and evaluation of Bothrops venom serine protease peptidic inhibitors” (The Journal of Venomous Animals and Toxins Including …, 2021).

Where no end group is shown, it is not given here. [ ]: non-standard residue; d: D form.

One experiment relates to Bothrops spp venom SVSPs. To be noted: ref [9]; cited from earlier work. The method, then: In this context, the use of selective SVSPs inhibitory compounds, in association with available commercial antivenoms, could be a starting point for studies aiming snakebite treatment efficacy improvement. Therefore, in the present study, small peptides were evaluated as potential SVSPs inhibitors.

A further experiment relates to batroxobin. The experiment in a line: batroxobin thrombin-like activity, chromogenic substrate S-2238. It counts as biochemical, B. moojeni. The conditions noted are these: for inhibition of batroxobin activity: peptide 60 µg/mL, absorbance 405 nm. The procedure:
(§1) Batroxobin and human thrombin activities were evaluated using the chromogenic substrate S-2238 (Chromogenix). Briefly, batroxobin (0.8 U) or human thrombin (0.8U) was pre-incubated at 37°C for 10 minutes with different concentrations (0 to 1 mg/mL for batroxobin, and 60 µg/mL, for human thrombin), of each peptide in Tris/HCl buffer […], containing CaCl2 0.02% (v/v), pH 8.0. Enzymatic reaction was initiated by addition of substrate (200µM), followed by incubation at 37°C, for 20 minutes. When serine protease activity from BjV was evaluated using the chromogenic substrate S2238, 5 µg of BjV and 60 µg/mL of each peptide were employed.
(§2) For all assays using chromogenic substrates, hydrolysis was quantified by evaluation of absorbance at 405 nm, in a spectrophotometer SpectraMax® Paradigm® Multi-Mode reader from Molecular Devices (Sunnyvale, CA).
(§3) SVSPs activity from BjV was also evaluated using the fluorogenic substrate Abz-Ser. Briefly, BjV (5 µg/100µL) was pre-incubated at 37 °C for 10 minutes with 100 µg/mL of each peptide, in PBS pH 7.4 containing 20mM NaCl. Enzymatic reaction was initiated by addition of substrate (10 µM), followed by incubation at 37°C, for 20 minutes. The substrate hydrolysis was monitored following fluorescence emitted at 420 nm, under excitation at 320 nm in a spectrofluorimeter (Victor 3^TM Perkin- Elmer, Boston, MA, USA), as described by Araujo et al. (2000). All the experiments were made in triplicate.
Figure 2. Evaluation of the effects of synthetic peptides on batroxobin and on human serine proteases activities. (A) Batroxobin activity was evaluated after 20 min, at 37 °C, using the chromogenic substrate S-2238 and the indicated concentrations of synthetic peptides. (B, C, D) Commercial hSPs had their activity evaluated after 20 min, at 37 °C, using their specific chromogenic substrates and batroxobin inhibitory peptides at 60 µg/mL.

The subject of another experiment is human thrombin. Kind of experiment: human thrombin activity, chromogenic substrate S-2238. It counts as biochemical. To be noted: peptide 60 µg/mL; human thrombin 0.8U; pre-incubated 10 min 37°C, Tris/HCl 0.15mM, CaCl2 0.02%, pH 8.0; S-2238 200 µM, 20 min 37°C; 405 nm; triplicate. The method, then: as §1, §2
(§4) SVSPs activity from BjV was also evaluated using the fluorogenic substrate Abz-Ser. Briefly, BjV (5 µg/100µL) was pre-incubated at 37 °C for 10 minutes with 100 µg/mL of each peptide, in PBS pH 7.4 containing 20mM NaCl. Enzymatic reaction was initiated by addition of substrate (10 µM), followed by incubation at 37°C, for 20 minutes. The substrate hydrolysis was monitored following fluorescence emitted at 420 nm, under excitation at 320 nm in a spectrofluorimeter (Victor 3^TM Perkin- Elmer, Boston, MA, USA), as described by Araujo et al. (2000). […]

The test system of a further experiment is human factor Xa. Kind of experiment: proteolytic activity of human factor Xa, chromogenic substrate CS-11(22). Type of experiment: biochemical. To be noted: peptide 60 µg/mL; factor Xa 20nM; pre-incubated 10 min 37°C, Tris/HCl 20 mM, NaCl 150 mM, pH 7.4; CS-11(22) 100µM, 20 min 37°C; 405 nm; triplicate. The procedure:
Proteolytic activity of human factor Xa was evaluated using the chromogenic substrate CS-11(22) (Hyphen). Briefly, factor Xa (20nM) was pre-incubated for 10 minutes at 37°C with 60 µg/mL of each peptide in Tris/HCl buffer 20 mM, pH 7.4 containing NaCl 150 mM. Enzymatic reaction was initiated by the addition of substrate (100µM), followed by incubation at 37°C, for 20 minutes.
as §2
(§5) SVSPs activity from BjV was also evaluated using the fluorogenic substrate Abz-Ser. Briefly, BjV (5 µg/100µL) was pre-incubated at 37 °C for 10 minutes with 100 µg/mL of each peptide, in PBS pH 7.4 containing 20mM NaCl. […] The substrate hydrolysis was monitored following fluorescence emitted at 420 nm, under excitation at 320 nm in a spectrofluorimeter (Victor 3^TM Perkin- Elmer, Boston, MA, USA), as described by Araujo et al. (2000). […]
(§6) Figure 2. […] (A) Batroxobin activity was evaluated after 20 min, at 37 °C, using the chromogenic substrate S-2238 and the indicated concentrations of synthetic peptides. (B, C, D) Commercial hSPs had their activity evaluated after 20 min, at 37 °C, using their specific chromogenic substrates and batroxobin inhibitory peptides at 60 µg/mL.

A further experiment concerns human trypsin. Kind of experiment: proteolytic activity of human trypsin, chromogenic substrate BAPNA. To be noted: peptide 60 µg/mL; trypsin 126 nM; pre-incubated 10 min 37°C, Tris/HCl 50 mM, CaCl2 0.02%, pH 8.0; BAPNA 1.25 mM, 20 min 37°C; 405 nm; triplicate. It counts as biochemical. The procedure:
Proteolytic activity of human trypsin was evaluated using the chromogenic substrate BAPNA (Sigma). Briefly, trypsin (126 nM) was pre-incubated for 10 minutes at 37°C with 60 µg/mL of each peptide in Tris/HCl buffer 50 mM containing CaCl2 0.02% (v/v), pH 8.0. Enzymatic reaction was initiated by addition of substrate (1.25 mM), followed by incubation at 37°C, for 20 minutes.
as §2, §5, §6

In experiment [1] the test system is Bothrops jararaca venom (BjV) serine proteases. The experiment in a line: BjV serine protease (thrombin-like) activity, chromogenic substrate S2238. It counts as biochemical. The conditions noted are these: BjV 5 µg, peptide 60 µg/mL or 100 µg/mL, S2238 200 µM or 2 mM, 20 min 37°C, 405 nm, triplicate. The procedure:
as §1, §2, §4

In experiment [2] the test system is Bothrops jararaca venom (BjV) SVSPs. Kind of experiment: BjV SVSPs activity, fluorogenic substrate Abz-Ser. It counts as biochemical. The conditions noted are these: peptide 100 µg/mL; for inhibition of BjV serine protease activity on Abz-Ser: substrate Abz-Ser 10 µM, BjV 5 µg/100µL, pre-incubated 10 min 37°C, PBS pH 7.4, 20mM NaCl, 20 min 37°C, fluorescence 420 nm (ex 320 nm), triplicate. The method, then: as §3
Figure 3. Evaluation of synthetic peptides on Bothrops venom serine-proteases. BjV was pre-incubated with 100 µg/mL of pepB or pepC and a serine proteases activity was evaluated after 20 min, at 37 °C, with (A) 2 mM of substrate S2238 or (B) 10 µM of substrate Abz-Ser.

Where [3] appears, read: batroxobin 0.8 U, pre-incubated 10 min 37°C, Tris/HCl 0.15mM, CaCl2 0.02%, pH 8.0, S-2238 200 µM, 20 min 37°C, triplicate.

Regarding Abz-RPPGFSPFRQ-EDDnp [Abz-Ser], the “selectivity as substrate for Bothrops spp venom SVSPs” value with Bothrops spp venom SVSPs was “selective for Bothrops spp venom SVSPs”.

For the substance “PFYQAS [pepA, 6-mer peptide designed based on carboxyl-terminus of the substrate Abz-Ser]”, the “inhibition of batroxobin activity (in words)” value in the experiment with batroxobin (tested until 1 mg/mL, batroxobin 0.8 U, pre-incubated 10 min 37°C, Tris/HCl 0.15mM, CaCl2 0.02%, pH 8.0, S-2238 200 µM, 20 min 37°C, triplicate) is reported as “did not inhibit batroxobin activity”.

With “PFYQSS [pepC, 6-mer peptide related to pepA, a Ser instead of Ala]”, the “inhibition of batroxobin activity” value in the experiment with batroxobin (setting [3]) is listed as 18 ± 4%. The “effect on catalytic activity of human thrombin” value in the experiment on human thrombin is “none of the peptides inhibited human serine proteases”. Besides, the “effect on catalytic activity of human factor Xa” value in the experiment with human factor Xa is “none of the peptides inhibited human serine proteases”. Besides, the “effect on catalytic activity of human trypsin” value in the experiment with human trypsin is recorded as “none of the peptides inhibited human serine proteases”. For the same substance, the “inhibition of BjV thrombin-like activity” value in experiment [1] amounted to 18 ± 2%. In addition, in experiment [2], the “inhibition of BjV serine protease activity on Abz-Ser” value turned out to be 19.3 ± 0.7%.

With “PF[dR]QAS [pepB, 6-mer peptide related to pepA, D-Arg replacing Tyr]”, the “efficiency on batroxobin relative to pepC” value in the experiment on batroxobin (pepB compared with pepC) is reported as “twice more efficient than pepC”. Besides, in the experiment with batroxobin (setting [3]), the “inhibition of batroxobin activity” value came to 36 ± 7%. Besides, the “effect on catalytic activity of human thrombin” value with human thrombin is given as “none of the peptides inhibited human serine proteases”. The “effect on catalytic activity of human factor Xa” value with human factor Xa is “none of the peptides inhibited human serine proteases”. In addition, in the experiment on human trypsin, the “effect on catalytic activity of human trypsin” value is “none of the peptides inhibited human serine proteases”. In addition, the “inhibition of BjV thrombin-like activity” value in experiment [1] came to 15 ± 3%. In addition, in experiment [2] (pepB compared with pepC), the “inhibitory effect of pepB relative to pepC on BjV with Abz-Ser” value amounted to 4 times less efficient. In addition, the “inhibition of BjV serine protease activity on Abz-Ser” value in experiment [2] is 5.4 ± 0.7%.
